# Columns and labels:
# [1] = system: type 2 diabetic population inadequately treated with oral drugs; assay: Treat-to-Target study (HOE901/4002): lipid data; type: in vivo, human; parameters: Triglycerides % reduction from baseline / Triglycerides % reduction from baseline, LANTUS-AMARYL / Non-HDL Cholesterol Total % reduction from baseline / Non-HDL Cholesterol Total % reduction from baseline, LANTUS-AMARYL: concentration or dose not given beside the values; Triglycerides Baseline / Triglycerides Endpoint: unit not given beside the values; details: for Non-HDL Cholesterol Total % reduction from baseline, LANTUS-AMARYL / Non-HDL Cholesterol Total change at endpoint, LANTUS-AMARYL / Triglycerides % reduction from baseline, LANTUS-AMARYL / Triglycerides change at endpoint, LANTUS-AMARYL: LANTUS (4002 Study) minus AMARYL (two AMARYL studies)
# Excerpt: As a consequence of the excellent glycemic control attained, which set the standard for glycemic control in future trials, the 4002 study results are especially useful as an assessment of Lantus's LANTUS (insulin glargine) effects on lipids.
# [2] = Post-marketing surveillance safety database; parameters: species or system human
# Excerpt: Treatment with Lantus® LANTUS (insulin glargine) insulin offers the possibility of a smooth, daylong, blood insulin profile without a definite peak that can be finely titrated to lower subjects' FPG in a durable manner, while minimizing the risk of hypoglycemia at other times of day.
substance,measurement,setting,value
insulin glargine [LANTUS],HDL Baseline,[1]; TG baseline range 200-500,42
same,HDL Endpoint,[1]; TG baseline range 200-500,41
same,Non-HDL Cholesterol Total % reduction from baseline,[1]; TG baseline range 200-500,7%
same,Non-HDL Cholesterol Total Baseline,[1]; TG baseline range 200-500,167
same,Non-HDL Cholesterol Total Endpoint,[1]; TG baseline range 200-500,155
same,Triglycerides % reduction from baseline,[1]; TG baseline range 200-500,25%
same,Triglycerides Baseline,[1]; TG baseline range 200-500,288
same,Triglycerides Endpoint,[1]; TG baseline range 200-500,232
same,"Non-HDL Cholesterol Total % reduction from baseline, LANTUS-AMARYL",[1]; TG baseline range 200-500,4%
same,"Non-HDL Cholesterol Total change at endpoint, LANTUS-AMARYL",[1]; TG baseline range 200-500,5.8
same,"Triglycerides % reduction from baseline, LANTUS-AMARYL",[1]; TG baseline range 200-500,13%
same,"Triglycerides change at endpoint, LANTUS-AMARYL",[1]; TG baseline range 200-500,21.7
same,HDL Baseline,[1]; TG baseline range 300-500,40
same,HDL Endpoint,[1]; TG baseline range 300-500,40
same,Non-HDL Cholesterol Total % reduction from baseline,[1]; TG baseline range 300-500,15%
same,Non-HDL Cholesterol Total Baseline,[1]; TG baseline range 300-500,180
same,Non-HDL Cholesterol Total Endpoint,[1]; TG baseline range 300-500,152
same,Triglycerides % reduction from baseline,[1]; TG baseline range 300-500,34%
same,Triglycerides Baseline,[1]; TG baseline range 300-500,362
same,Triglycerides Endpoint,[1]; TG baseline range 300-500,240
same,"Non-HDL Cholesterol Total % reduction from baseline, LANTUS-AMARYL",[1]; TG baseline range 300-500,12%
same,"Non-HDL Cholesterol Total change at endpoint, LANTUS-AMARYL",[1]; TG baseline range 300-500,21.9
same,"Triglycerides % reduction from baseline, LANTUS-AMARYL",[1]; TG baseline range 300-500,16%
same,"Triglycerides change at endpoint, LANTUS-AMARYL",[1]; TG baseline range 300-500,52.5
same,HDL Baseline,[1]; TG baseline range 300-1000,37
same,HDL Endpoint,[1]; TG baseline range 300-1000,38
same,Non-HDL Cholesterol Total % reduction from baseline,[1]; TG baseline range 300-1000,10%
same,Non-HDL Cholesterol Total Baseline,[1]; TG baseline range 300-1000,181
same,Non-HDL Cholesterol Total Endpoint,[1]; TG baseline range 300-1000,163
same,Triglycerides % reduction from baseline,[1]; TG baseline range 300-1000,36%
same,Triglycerides Baseline,[1]; TG baseline range 300-1000,470
same,Triglycerides Endpoint,[1]; TG baseline range 300-1000,301
same,"Non-HDL Cholesterol Total % reduction from baseline, LANTUS-AMARYL",[1]; TG baseline range 300-1000,5%
same,"Non-HDL Cholesterol Total change at endpoint, LANTUS-AMARYL",[1]; TG baseline range 300-1000,8.6
same,"Triglycerides % reduction from baseline, LANTUS-AMARYL",[1]; TG baseline range 300-1000,13%
same,"Triglycerides change at endpoint, LANTUS-AMARYL",[1]; TG baseline range 300-1000,63.6
same,HDL Baseline,[1]; TG baseline range 500-1000,33
same,HDL Endpoint,[1]; TG baseline range 500-1000,36
same,Non-HDL Cholesterol Total % reduction from baseline,[1]; TG baseline range 500-1000,8%
same,Non-HDL Cholesterol Total Baseline,[1]; TG baseline range 500-1000,186
same,Non-HDL Cholesterol Total Endpoint,[1]; TG baseline range 500-1000,171
same,Triglycerides % reduction from baseline,[1]; TG baseline range 500-1000,38%
same,Triglycerides Baseline,[1]; TG baseline range 500-1000,661
same,Triglycerides Endpoint,[1]; TG baseline range 500-1000,409
same,"Non-HDL Cholesterol Total % reduction from baseline, LANTUS-AMARYL",[1]; TG baseline range 500-1000,−2%
same,"Non-HDL Cholesterol Total change at endpoint, LANTUS-AMARYL",[1]; TG baseline range 500-1000,−9.0
same,"Triglycerides % reduction from baseline, LANTUS-AMARYL",[1]; TG baseline range 500-1000,5%
same,"Triglycerides change at endpoint, LANTUS-AMARYL",[1]; TG baseline range 500-1000,34.4
same,LDL Baseline,[1]; TG baseline range All,113
same,LDL Endpoint,[1]; TG baseline range All,110
same,reduction in fasting TG levels,[1]; all patients,24%
same,reduction in fasting TG levels,[1]; elevations of 500 mg/dL or more,38%
same,reduction in fasting TG levels,[1]; fasting TG in the 300-499 mg/dL range,34%
same,incidence of hypoglycemia or unexpected adverse reactions compared to other marketed insulin preparations,[2],no increased incidence of hypoglycemia or unexpected adverse reactions
